Experiments:
[1] = In vivo pharmacokinetics study in rats; details: male SD rats, oral 2 mg/kg
[2] = Plasma protein binding rate test (equilibrium dialysis), human plasma; details: 2 µM, equilibrium dialysis 4 hours, 37°C
[3] = Plasma protein binding rate test (equilibrium dialysis), SD rat plasma; details: 2 µM, equilibrium dialysis 4 hours, 37°C
[4] = Plasma protein binding rate test (equilibrium dialysis), cynomolgus monkey plasma; details: 2 µM, equilibrium dialysis 4 hours, 37°C
[5] = In vivo pharmacokinetic study in cynomolgus monkeys; details: male cynomolgus monkeys, oral 3 mg/kg
[6] = In vitro liver microsome metabolic stability study; details: human liver microsomes 0.5 mg/mL, 1 µM compound, up to 60 minutes
MDR1-MDCKII cells = experiment: Permeability test (MDR1-MDCKII monolayer, bidirectional transport); assay type: in vitro ADME; details: 2 µM
Method: (§1) Experimental objective: The permeability and efflux ratio of the compound of the present disclosure were determined using the MDR1-MDCKII monolayer cell model to assess its membrane permeability and potential for P-gp-mediated efflux transport.
(§2) Experimental protocol: MDR1-MDCKII cells (obtained from the Netherlands Cancer Institute) were seeded in 96-well plates (obtained from Corning) at a cell density of 3.33 × 10^5 cells/mL and cultured for 4 to 7 days to form confluent cell monolayers. Hank's balanced salt solution containing 10 mM HEPES (pH 7.40) was used as the transport buffer. The test compound was evaluated for bidirectional transport at a concentration of 2 µM, with the DMSO concentration in the incubation system maintained below 1%. After adding the samples, the cell plate was incubated at 37±1°C, 5% CO2, and saturated humidity for 2.5 hours. All samples were quantitatively analyzed using the LC-MS/MS method. The apparent permeability coefficient (Papp, cm/s) and efflux ratio (ER) were calculated using the following formula. Apparent permeability coefficient (Papp, cm/s) was calculated using the following formula: Papp = (dCr/dt) x Vr / (A x C0). Herein, dCr/dt represents the cumulative concentration of the compound at the receiving end per unit time (µM/s); Vr is the volume of the solution at the receiving end (with solution volumes at the apical and basolateral ends being 0.075 mL and 0.250 mL, respectively); A is the relative surface area of the cell monolayer (0.143 cm^2); C0 is the initial concentration of the test substance at the dosing end (µM) or the peak area ratio of the reference substance. The efflux ratio was calculated using the following formula: ER = Papp (BA)/ Papp (AB). Table 7: Permeability test results of compounds

in vitro [7] = details: human, plasma
in vitro [8] = details: cynomolgus monkey, plasma
in vivo [9] = details: cynomolgus monkey, po, 1 mg/kg
in vitro [10] = details: human, microsomes
in vitro [11] = details: rat, plasma
in vivo [12] = details: rat, po, 2 mg/kg
[13] = Permeability test (MDR1-MDCKII monolayer, bidirectional transport); assay type: in vitro ADME; details: dog; for efflux ratio at 2.5 h, 2 µM: MDCK-MDR1, pH 7.4, ER = Papp (BA)/ Papp (AB); for Papp A→B at 2.5 h, 2 µM: MDCK-MDR1, pH 7.4, pH 7.40, 2.5 hours, A to B, read-out: Apparent permeability coefficient (Papp (AB), 10^-6 cm/s)
Method: as §1, §2

SMILES	fraction unbound at 4 h, 2 µM (in vitro [7])	fraction unbound at 4 h, 2 µM (in vitro [8])	AUC(0-t) at 24 h (in vivo [9]) [µM·h]	Cmax (in vivo [9]) [µM]	bioavailability (in vivo [9]) [%]	half-life (in vivo [9]) [h]	CLint scaled at 1 µM (in vitro [10]) [mL/min/kg]	fraction unbound at 4 h, 2 µM (in vitro [11])	AUC(0-t) at 24 h (in vivo [12]) [µM·h]	Cmax (in vivo [12]) [µM]	bioavailability (in vivo [12]) [%]	half-life (in vivo [12]) [h]	efflux ratio at 2.5 h, 2 µM [13]	Papp A→B at 2.5 h, 2 µM [13] [×10⁻⁶ cm/s]	further results
CCC(=O)N[C@@H]1CCCc2c(-c3ccc4c(ccc(=O)n4C)c3)cncc21 (single isomer, unassigned) [Compound 001]															F (%) [1]: 80%; AUC0-24h ([1]; plasma): 59.097 µM·h; Cmax ([1]; plasma): 7.63 µM; T1/2 ([1]; plasma): 4.61 h; Human plasma protein binding rate (%) [2]: 76.1%; Plasma protein binding rate (%) in SD rats [3]: 92.1%; Plasma protein binding rate (%) in cynomolgus monkeys [4]: 74.6%; F (%) [5]: 120%; AUC0-24h ([5]; plasma): 23.174 µM·h; Cmax ([5]; plasma): 4 µM; T1/2 ([5]; plasma): 4.99 h; Intrinsic hepatic clearance CLint(liver) [6]: <8.6 mL/min/kg; Efflux ratio (ER) (MDR1-MDCKII cells; ER = Papp (BA)/ Papp (AB), 150 min): 1.76; Apparent permeability coefficient (Papp (AB), 10^-6 cm/s) (MDR1-MDCKII cells; pH 7.40, 2.5 hours, A to B): 17.2 10^-6 cm/s
CCC(=O)NC1CCCc2c(-c3cc4ccc(=O)n(C)c4s3)cncc21 (single isomer, unassigned) [Compound 023]	0.304	0.31	8.92	1.32	76.5	4.8	< 8.6	0.096	44.2	6.92	109	3.6	1.28	20.8	
CCC(=O)NC1CCCc2c(-c3cc4c(s3)N(C)C(=O)CC4)cncc21 (single isomer, unassigned) [Compound 017]	0.173	0.219	7.29	1.07	66	5.3	< 8.6	0.051	8.13	4.17	115	1.34	0.95	23.2	
